Experimental data from ChEMBL document CHEMBL3627608, “Crystal structures of human RIP2 kinase catalytic domain complexed with ATP-competitive inhibitors: Foundations for understanding inhibitor selectivity” (Bioorg Med Chem, 2015).

Key:
[1] = target: T1, TGF-beta receptor type-1 (Homo sapiens) (UniProt P36897); test: Inhibition of ALK5 (unknown origin) at 10 uM after 120 mins P33 radiolabeled kinase activity assay
T1 sequence (whole entry): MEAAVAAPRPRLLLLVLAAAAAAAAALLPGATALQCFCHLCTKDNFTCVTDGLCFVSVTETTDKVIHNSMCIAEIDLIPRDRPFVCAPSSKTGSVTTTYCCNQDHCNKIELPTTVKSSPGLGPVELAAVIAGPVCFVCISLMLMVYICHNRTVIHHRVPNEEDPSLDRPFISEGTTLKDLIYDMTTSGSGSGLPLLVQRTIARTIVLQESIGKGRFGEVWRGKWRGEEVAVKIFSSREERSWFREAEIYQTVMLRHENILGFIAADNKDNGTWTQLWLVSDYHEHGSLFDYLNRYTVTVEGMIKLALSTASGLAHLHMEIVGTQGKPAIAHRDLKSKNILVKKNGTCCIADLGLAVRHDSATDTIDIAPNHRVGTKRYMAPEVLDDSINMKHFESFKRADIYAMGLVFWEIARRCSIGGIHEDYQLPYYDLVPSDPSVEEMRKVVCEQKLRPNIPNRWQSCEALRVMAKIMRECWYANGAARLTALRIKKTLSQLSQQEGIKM

[2] = target: Cyclin-dependent kinase 5/CDK5 activator 1 (Homo sapiens) (UniProt Q00535+Q15078); test: Inhibition of CDK5/p35 (unknown origin) at 10 uM after 120 mins P33 radiolabeled kinase activity assay; assay type: protein-complex assay
[3] = target: Ephrin type-A receptor 5 (Homo sapiens) (UniProt P54756); test: Inhibition of EPHA5 (unknown origin) at 10 uM after 120 mins P33 radiolabeled kinase activity assay
Ephrin type-A receptor 5 (Homo sapiens), sequence (P54756 whole entry): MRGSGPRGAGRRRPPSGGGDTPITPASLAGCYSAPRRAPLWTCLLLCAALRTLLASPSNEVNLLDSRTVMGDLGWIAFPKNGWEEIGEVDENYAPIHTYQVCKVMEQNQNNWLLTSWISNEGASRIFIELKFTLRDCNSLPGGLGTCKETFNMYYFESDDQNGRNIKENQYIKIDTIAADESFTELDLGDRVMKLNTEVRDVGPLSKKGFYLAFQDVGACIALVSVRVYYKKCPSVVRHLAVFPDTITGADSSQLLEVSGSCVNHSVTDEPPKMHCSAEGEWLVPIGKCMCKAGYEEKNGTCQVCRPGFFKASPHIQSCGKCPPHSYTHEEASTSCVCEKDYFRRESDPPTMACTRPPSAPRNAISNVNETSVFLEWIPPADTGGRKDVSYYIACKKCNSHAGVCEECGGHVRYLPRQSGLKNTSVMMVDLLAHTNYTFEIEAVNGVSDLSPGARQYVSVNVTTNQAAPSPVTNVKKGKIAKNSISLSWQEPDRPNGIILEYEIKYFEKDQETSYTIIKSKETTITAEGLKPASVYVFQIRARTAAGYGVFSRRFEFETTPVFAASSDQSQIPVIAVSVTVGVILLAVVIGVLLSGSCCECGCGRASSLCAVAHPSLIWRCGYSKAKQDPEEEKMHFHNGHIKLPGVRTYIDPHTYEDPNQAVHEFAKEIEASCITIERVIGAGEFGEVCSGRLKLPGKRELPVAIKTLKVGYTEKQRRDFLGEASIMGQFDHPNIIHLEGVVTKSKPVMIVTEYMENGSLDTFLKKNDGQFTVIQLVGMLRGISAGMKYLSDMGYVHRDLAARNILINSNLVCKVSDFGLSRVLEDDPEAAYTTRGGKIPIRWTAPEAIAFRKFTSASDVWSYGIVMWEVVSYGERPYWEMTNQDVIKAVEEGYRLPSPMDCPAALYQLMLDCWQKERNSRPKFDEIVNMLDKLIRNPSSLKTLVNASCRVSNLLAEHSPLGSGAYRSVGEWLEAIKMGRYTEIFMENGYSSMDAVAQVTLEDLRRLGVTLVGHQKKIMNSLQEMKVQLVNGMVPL

Homo sapiens = organism: Homo sapiens; test: Inhibition of PKCbeta1 (unknown origin) at 10 uM after 120 mins P33 radiolabeled kinase activity assay
[4] = target: T2, cAMP-dependent protein kinase catalytic subunit PRKX (Homo sapiens) (UniProt P51817); test: Inhibition of PRKX (unknown origin) at 10 uM after 120 mins P33 radiolabeled kinase activity assay
T2 sequence (whole entry): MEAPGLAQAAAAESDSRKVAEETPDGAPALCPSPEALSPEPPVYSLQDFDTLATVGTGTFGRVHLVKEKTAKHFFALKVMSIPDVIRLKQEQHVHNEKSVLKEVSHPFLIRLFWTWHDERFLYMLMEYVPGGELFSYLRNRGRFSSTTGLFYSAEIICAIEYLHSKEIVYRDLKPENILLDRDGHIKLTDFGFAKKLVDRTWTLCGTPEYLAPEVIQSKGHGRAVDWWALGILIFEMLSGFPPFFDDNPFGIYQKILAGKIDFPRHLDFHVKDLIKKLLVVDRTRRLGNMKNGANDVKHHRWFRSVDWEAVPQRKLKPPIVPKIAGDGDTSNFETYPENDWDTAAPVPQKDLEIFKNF

[5] = target: T3, Testis-specific serine/threonine-protein kinase 1 (Homo sapiens) (UniProt Q9BXA7); test: Inhibition of STK22D (unknown origin) at 10 uM after 120 mins P33 radiolabeled kinase activity assay
T3 sequence (whole entry): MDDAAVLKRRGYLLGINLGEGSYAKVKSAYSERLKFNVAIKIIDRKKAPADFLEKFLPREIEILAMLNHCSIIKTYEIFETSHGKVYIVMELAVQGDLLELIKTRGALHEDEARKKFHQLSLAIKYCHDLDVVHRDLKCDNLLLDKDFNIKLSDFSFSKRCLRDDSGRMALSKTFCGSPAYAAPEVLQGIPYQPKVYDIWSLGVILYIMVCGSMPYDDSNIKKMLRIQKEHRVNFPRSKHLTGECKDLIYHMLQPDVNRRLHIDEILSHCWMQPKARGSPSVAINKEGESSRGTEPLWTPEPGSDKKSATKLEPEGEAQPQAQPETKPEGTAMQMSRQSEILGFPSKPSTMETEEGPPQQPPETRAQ

[6] = target: Serine/threonine-protein kinase WNK3 (Homo sapiens) (UniProt Q9BYP7); test: Inhibition of WNK3 (unknown origin) at 10 uM after 120 mins P33 radiolabeled kinase activity assay
Serine/threonine-protein kinase WNK3 (Homo sapiens), sequence (Q9BYP7 whole entry): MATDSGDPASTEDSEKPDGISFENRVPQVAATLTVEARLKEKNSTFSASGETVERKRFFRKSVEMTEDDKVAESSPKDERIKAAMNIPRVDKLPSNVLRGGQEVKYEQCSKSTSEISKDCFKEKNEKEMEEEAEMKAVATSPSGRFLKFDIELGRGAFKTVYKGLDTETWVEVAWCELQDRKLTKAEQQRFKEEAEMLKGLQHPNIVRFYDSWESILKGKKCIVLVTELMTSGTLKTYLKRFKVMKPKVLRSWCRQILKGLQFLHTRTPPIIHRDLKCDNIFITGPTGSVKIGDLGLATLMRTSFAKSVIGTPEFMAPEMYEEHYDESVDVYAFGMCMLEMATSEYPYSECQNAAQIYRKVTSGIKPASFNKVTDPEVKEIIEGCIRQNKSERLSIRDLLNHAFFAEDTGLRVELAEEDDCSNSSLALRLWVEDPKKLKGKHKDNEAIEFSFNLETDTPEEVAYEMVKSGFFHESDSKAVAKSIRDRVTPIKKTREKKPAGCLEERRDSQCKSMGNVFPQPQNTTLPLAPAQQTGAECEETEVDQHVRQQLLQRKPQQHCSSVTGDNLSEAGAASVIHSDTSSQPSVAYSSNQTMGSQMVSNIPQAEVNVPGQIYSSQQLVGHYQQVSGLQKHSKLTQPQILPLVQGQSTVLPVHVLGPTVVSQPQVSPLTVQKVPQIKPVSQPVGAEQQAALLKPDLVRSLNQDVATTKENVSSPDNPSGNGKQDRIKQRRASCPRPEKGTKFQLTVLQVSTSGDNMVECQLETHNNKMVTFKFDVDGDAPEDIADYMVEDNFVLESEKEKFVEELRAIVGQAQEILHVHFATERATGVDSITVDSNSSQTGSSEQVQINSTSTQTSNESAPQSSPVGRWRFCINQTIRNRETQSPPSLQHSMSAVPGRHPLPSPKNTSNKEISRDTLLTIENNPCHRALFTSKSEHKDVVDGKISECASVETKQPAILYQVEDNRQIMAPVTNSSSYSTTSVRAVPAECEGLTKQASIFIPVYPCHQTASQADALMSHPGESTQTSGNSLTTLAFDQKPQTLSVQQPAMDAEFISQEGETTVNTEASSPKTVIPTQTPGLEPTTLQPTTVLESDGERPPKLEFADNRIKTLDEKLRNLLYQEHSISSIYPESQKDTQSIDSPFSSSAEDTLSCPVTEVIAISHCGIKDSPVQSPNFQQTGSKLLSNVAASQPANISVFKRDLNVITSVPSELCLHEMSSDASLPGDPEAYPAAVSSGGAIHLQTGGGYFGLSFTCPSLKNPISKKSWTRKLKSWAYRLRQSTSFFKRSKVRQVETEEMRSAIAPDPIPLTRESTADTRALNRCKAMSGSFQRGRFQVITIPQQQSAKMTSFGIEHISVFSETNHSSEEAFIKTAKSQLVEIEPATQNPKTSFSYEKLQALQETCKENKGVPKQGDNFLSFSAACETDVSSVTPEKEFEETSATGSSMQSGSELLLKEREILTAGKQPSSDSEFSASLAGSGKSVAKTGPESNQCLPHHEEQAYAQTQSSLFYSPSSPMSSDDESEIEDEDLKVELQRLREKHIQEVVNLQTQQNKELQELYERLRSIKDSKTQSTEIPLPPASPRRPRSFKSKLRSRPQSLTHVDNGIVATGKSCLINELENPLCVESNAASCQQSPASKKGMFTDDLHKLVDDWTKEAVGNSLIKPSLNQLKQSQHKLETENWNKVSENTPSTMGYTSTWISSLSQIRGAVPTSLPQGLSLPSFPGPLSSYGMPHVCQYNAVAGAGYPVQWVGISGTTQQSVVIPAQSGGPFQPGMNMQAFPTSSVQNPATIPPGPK

[7] = target: Proto-oncogene tyrosine-protein kinase receptor Ret (Homo sapiens) (UniProt P07949); test: Inhibition of RET (unknown origin) at 10 uM after 120 mins P33 radiolabeled kinase activity assay
[8] = target: Serine/threonine-protein kinase N2 (Homo sapiens) (UniProt Q16513); test: Inhibition of PKN2 (unknown origin) at 10 uM after 120 mins P33 radiolabeled kinase activity assay
Serine/threonine-protein kinase N2 (Homo sapiens), sequence (Q16513 whole entry, looked up): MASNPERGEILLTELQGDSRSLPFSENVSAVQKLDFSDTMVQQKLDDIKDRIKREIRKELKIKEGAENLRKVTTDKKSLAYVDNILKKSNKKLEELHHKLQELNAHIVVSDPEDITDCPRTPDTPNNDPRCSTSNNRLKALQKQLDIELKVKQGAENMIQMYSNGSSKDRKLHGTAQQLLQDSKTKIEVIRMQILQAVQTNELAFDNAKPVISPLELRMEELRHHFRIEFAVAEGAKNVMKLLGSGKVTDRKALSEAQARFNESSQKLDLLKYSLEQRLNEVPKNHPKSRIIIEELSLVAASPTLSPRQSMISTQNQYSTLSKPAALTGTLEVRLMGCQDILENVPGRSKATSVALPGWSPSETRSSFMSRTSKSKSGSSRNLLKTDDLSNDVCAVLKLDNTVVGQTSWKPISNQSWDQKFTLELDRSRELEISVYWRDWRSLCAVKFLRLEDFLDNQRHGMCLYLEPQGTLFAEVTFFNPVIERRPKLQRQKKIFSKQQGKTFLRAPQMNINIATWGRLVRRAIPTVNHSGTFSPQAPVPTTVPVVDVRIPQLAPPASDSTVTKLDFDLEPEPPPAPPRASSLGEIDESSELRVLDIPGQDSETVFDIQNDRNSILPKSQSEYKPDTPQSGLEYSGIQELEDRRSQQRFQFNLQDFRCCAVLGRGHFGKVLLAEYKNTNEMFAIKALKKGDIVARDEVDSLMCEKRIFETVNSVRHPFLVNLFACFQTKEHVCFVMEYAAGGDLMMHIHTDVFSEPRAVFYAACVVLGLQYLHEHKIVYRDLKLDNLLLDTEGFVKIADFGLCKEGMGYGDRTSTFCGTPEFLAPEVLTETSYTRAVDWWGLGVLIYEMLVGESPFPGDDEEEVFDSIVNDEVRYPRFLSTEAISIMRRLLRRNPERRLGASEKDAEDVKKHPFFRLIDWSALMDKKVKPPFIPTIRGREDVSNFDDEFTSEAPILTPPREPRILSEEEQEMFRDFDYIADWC

[9] = target: Dual specificity protein kinase CLK1 (Homo sapiens) (UniProt P49759); test: Inhibition of CLK1 (unknown origin) at 10 uM after 120 mins P33 radiolabeled kinase activity assay
[10] = target: T4, Serine/threonine-protein kinase D2 (Homo sapiens) (UniProt Q9BZL6); test: Inhibition of PKD2 (unknown origin) at 10 uM after 120 mins P33 radiolabeled kinase activity assay
T4 sequence (whole entry): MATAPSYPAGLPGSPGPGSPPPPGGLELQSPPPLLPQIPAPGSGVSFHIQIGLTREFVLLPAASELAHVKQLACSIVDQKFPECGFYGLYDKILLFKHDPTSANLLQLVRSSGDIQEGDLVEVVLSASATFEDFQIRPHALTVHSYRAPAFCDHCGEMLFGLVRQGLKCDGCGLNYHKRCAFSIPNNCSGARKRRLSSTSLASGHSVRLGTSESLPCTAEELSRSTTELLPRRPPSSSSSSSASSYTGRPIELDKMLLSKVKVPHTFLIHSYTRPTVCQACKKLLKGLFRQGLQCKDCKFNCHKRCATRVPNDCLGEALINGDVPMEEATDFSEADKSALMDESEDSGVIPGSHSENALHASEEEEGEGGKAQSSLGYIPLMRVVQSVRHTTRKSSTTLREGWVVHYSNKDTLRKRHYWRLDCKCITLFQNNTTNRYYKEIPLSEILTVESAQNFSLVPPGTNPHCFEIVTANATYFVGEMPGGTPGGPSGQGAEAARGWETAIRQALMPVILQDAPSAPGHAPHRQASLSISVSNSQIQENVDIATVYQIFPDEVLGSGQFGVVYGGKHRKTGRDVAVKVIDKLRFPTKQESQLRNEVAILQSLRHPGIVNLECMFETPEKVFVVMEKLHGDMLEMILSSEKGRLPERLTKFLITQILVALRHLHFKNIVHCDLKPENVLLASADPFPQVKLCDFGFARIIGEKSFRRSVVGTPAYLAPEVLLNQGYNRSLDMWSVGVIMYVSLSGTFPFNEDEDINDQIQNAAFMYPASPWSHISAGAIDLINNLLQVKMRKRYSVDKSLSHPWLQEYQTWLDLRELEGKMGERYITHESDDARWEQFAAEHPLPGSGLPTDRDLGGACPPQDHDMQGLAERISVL

[11] = target: Mitogen-activated protein kinase 14 (Homo sapiens) (UniProt Q16539); test: Inhibition of P38alpha (unknown origin) at 10 uM after 120 mins P33 radiolabeled kinase activity assay
Mitogen-activated protein kinase 14 (Homo sapiens), sequence (Q16539 whole entry): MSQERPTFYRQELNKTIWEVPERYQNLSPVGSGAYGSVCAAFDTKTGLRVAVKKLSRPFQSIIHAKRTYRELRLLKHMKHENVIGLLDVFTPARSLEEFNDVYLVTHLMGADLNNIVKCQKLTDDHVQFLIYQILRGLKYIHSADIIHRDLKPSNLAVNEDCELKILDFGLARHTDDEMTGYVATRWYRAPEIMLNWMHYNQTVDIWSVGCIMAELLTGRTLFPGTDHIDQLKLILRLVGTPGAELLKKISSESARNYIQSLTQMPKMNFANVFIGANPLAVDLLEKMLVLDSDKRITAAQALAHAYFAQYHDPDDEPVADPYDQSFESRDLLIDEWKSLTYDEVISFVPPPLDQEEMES

[12] = target: MAP/microtubule affinity-regulating kinase 3 (Homo sapiens) (UniProt P27448); test: Inhibition of MARK3 (unknown origin) at 10 uM after 120 mins P33 radiolabeled kinase activity assay
MAP/microtubule affinity-regulating kinase 3 (Homo sapiens), sequence (P27448 whole entry, looked up): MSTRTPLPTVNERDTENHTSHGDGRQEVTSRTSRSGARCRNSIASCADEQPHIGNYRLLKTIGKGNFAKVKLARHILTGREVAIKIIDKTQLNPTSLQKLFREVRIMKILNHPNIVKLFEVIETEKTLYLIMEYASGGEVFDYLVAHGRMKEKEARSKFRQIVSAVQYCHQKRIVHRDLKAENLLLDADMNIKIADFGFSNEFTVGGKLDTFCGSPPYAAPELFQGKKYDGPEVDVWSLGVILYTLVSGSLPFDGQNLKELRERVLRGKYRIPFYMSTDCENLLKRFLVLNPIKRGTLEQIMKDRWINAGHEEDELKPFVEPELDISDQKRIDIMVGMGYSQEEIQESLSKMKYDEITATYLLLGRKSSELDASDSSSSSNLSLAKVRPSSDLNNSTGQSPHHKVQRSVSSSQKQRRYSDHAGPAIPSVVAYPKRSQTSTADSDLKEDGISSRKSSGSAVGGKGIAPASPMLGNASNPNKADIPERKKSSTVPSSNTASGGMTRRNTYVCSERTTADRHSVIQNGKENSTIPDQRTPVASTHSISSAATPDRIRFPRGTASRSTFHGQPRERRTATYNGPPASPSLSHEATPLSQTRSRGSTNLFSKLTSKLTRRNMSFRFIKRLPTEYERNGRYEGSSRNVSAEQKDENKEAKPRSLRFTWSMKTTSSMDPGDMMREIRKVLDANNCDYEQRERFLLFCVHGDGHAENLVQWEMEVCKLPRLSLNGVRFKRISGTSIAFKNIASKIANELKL

Row | Structure (SMILES) | inhibition [1] | inhibition [2] | inhibition [3] | inhibition (Homo sapiens) | inhibition [4] | inhibition [5] | inhibition [6] | inhibition [7] | inhibition [8] | inhibition [9] | inhibition [10] | inhibition [11] | inhibition [12]
1 | COCCNC(=O)c1ccc2c(c1)nc(-c1cnc(-c3ccc(Cl)cc3)[nH]1)n2CCOC | -7.32% | 0.14% | 20.2% | 3% | 12.7% | 7.17% | -2.44% | 36% | 28% | 13.4% | 19.8% | 62.3% | -3.77%
2 | CS(=O)(=O)c1cccc(Nc2nccc(-c3sc(N4CCOCC4)nc3-c3cccc(NS(=O)(=O)c4c(F)cccc4F)c3)n2)c1 | 69.6% | 94.7% | 58% | -3.18% | 18.2% | 13.6% | 25.9% | 98% | 26.8% | 14.1% | 102% | 18.8% | 4.8%
3 | CC(C)(C)c1cc(NC(=O)Nc2ccc(Oc3ccncc3)cc2)no1 | -8.74% | 57.3% | 95.5% | -4.39% | 54.2% | 7.33% | 1.93% | 99.2% | 15.8% | 50.7% | 21.2% | 98.9% | -1.36%
